Data published in PubChem BioAssay (NCI).
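Exposure lasted 48 hours, with cells grown in 96-well plates and compounds tested at five concentrations. Abbreviation: GI50, concentration required for 50% inhibition of growth. The concentration for full growth arrest is given as TGI.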

Experiments:
Assay in all cases: NCI anticancer screen, dose series, 48 h
[1] = tested on: 786-0 renal
[2] = tested on: A498 renal
[3] = tested on: A549 NSCLC
[4] = tested on: ACHN renal
[5] = tested on: BT-549 breast
[6] = tested on: CAKI-1 renal
[7] = tested on: CCRF-CEM leukemia
[8] = tested on: COLO 205 colon
[9] = tested on: DU-145 prostate
[10] = tested on: EKVX NSCLC
[11] = tested on: HCC-2998 colon
[12] = tested on: HCT-116 colon
[13] = tested on: HCT-15 colon
[14] = tested on: HL-60(TB) leukemia
[15] = tested on: HOP-62 NSCLC
[16] = tested on: HOP-92 NSCLC
[17] = tested on: HS 578T breast
[18] = tested on: HT29 colon
[19] = tested on: IGROV1 ovarian
[20] = tested on: K-562 leukemia
[21] = tested on: KM12 colon
[22] = tested on: LOX IMVI melanoma
[23] = tested on: M14 melanoma
[24] = tested on: MALME-3M melanoma
[25] = tested on: MCF7 breast
[26] = tested on: MDA-MB-231 breast
[27] = tested on: MDA-MB-435
[28] = tested on: MDA-MB-468 breast
[29] = tested on: MOLT-4 leukemia
[30] = tested on: NCI-H226 lung
[31] = tested on: NCI-H23 lung
[32] = tested on: NCI-H522 lung
[33] = tested on: OVCAR-3 ovarian
[34] = tested on: OVCAR-5 ovarian
[35] = tested on: OVCAR-8 ovarian
[36] = tested on: PC-3 prostate
[37] = tested on: RPMI-8226 leukemia
[38] = tested on: RXF 393 renal
[39] = tested on: SF-268 CNS
[40] = tested on: SF-295 CNS
[41] = tested on: SF-539 CNS
[42] = tested on: SK-MEL-2 melanoma
[43] = tested on: SK-MEL-28 melanoma
[44] = tested on: SK-MEL-5 melanoma
[45] = tested on: SK-OV-3 ovarian
[46] = tested on: SN12C renal
[47] = tested on: SNB-19 CNS
[48] = tested on: SNB-75 CNS
[49] = tested on: T-47D breast
[50] = tested on: TK-10 renal
[51] = tested on: UACC-257 melanoma
[52] = tested on: UACC-62 melanoma
[53] = tested on: UO-31 renal

Cn1cc(-c2cc3nc(-c4cn(C)c5ncc(Br)cc45)cc(N)n3n2)c2cc(Cl)ccc21
GI50 [1]: 1760 nM
TGI [1]: 3200 nM
GI50 [2]: 7390 nM
TGI [2]: 24000 nM
GI50 [3]: 1620 nM
TGI [3]: 3540 nM
GI50 [4]: 1550 nM
TGI [4]: 2880 nM
GI50 [5]: 1910 nM
TGI [5]: 4240 nM
GI50 [6]: 1450 nM
TGI [6]: 2950 nM
GI50 [7]: 2870 nM
TGI [7]: 9950 nM
GI50 [8]: 2560 nM
TGI [8]: 6650 nM
GI50 [9]: 1780 nM
TGI [9]: 3610 nM
GI50 [10]: 1480 nM
TGI [10]: 3340 nM
GI50 [11]: 1740 nM
TGI [11]: 3170 nM
GI50 [12]: 1550 nM
TGI [12]: 2960 nM
GI50 [13]: 1570 nM
TGI [13]: 3160 nM
GI50 [14]: 1990 nM
TGI [14]: 5060 nM
GI50 [15]: 1720 nM
TGI [15]: 3480 nM
GI50 [16]: 1860 nM
TGI [16]: 3740 nM
GI50 [17]: 1890 nM
TGI [17]: 4480 nM
GI50 [18]: 1910 nM
TGI [18]: 3620 nM
GI50 [19]: 1710 nM
TGI [19]: 3380 nM
GI50 [20]: 1840 nM
TGI [20]: 5500 nM
GI50 [21]: 1490 nM
TGI [21]: 3960 nM
GI50 [22]: 1610 nM
TGI [22]: 2960 nM
GI50 [23]: 1710 nM
TGI [23]: 3250 nM
GI50 [24]: 1740 nM
TGI [24]: 3200 nM
GI50 [25]: 1640 nM
TGI [25]: 3250 nM
GI50 [26]: 1430 nM
TGI [26]: 2890 nM
GI50 [27]: 1760 nM
TGI [27]: 3380 nM
GI50 [28]: 1320 nM
TGI [28]: 2680 nM
GI50 [29]: 1710 nM
TGI [29]: 5070 nM
GI50 [30]: 1990 nM
TGI [30]: 4420 nM
GI50 [31]: 1910 nM
TGI [31]: 3980 nM
GI50 [32]: 1870 nM
TGI [32]: 3840 nM
GI50 [33]: 1630 nM
TGI [33]: 3250 nM
GI50 [34]: 1520 nM
TGI [34]: 3390 nM
GI50 [35]: 2020 nM
TGI [35]: 4960 nM
GI50 [36]: 1760 nM
TGI [36]: 4090 nM
GI50 [37]: 2930 nM
TGI [37]: 9380 nM
GI50 [38]: 1820 nM
TGI [38]: 3470 nM
GI50 [39]: 2110 nM
TGI [39]: 5110 nM
GI50 [40]: 1750 nM
TGI [40]: 3430 nM
GI50 [41]: 1510 nM
TGI [41]: 2880 nM
GI50 [42]: 1930 nM
TGI [42]: 4200 nM
GI50 [43]: 1720 nM
TGI [43]: 3230 nM
GI50 [44]: 1820 nM
TGI [44]: 4000 nM
GI50 [45]: 13700 nM
TGI [45]: 29100 nM
GI50 [46]: 1720 nM
TGI [46]: 3440 nM
GI50 [47]: 1890 nM
TGI [47]: 3830 nM
GI50 [48]: 1750 nM
TGI [48]: 4030 nM
GI50 [49]: 1580 nM
TGI [49]: 3630 nM
GI50 [50]: 1600 nM
TGI [50]: 3130 nM
GI50 [51]: 1710 nM
TGI [51]: 3560 nM
GI50 [52]: 1470 nM
TGI [52]: 2850 nM
GI50 [53]: 1540 nM
TGI [53]: 3330 nM
